In PMC12325182, “Discovery of novel and potent celastrol derivatives as PRDX1 inhibitors for cancer therapy through structure-based virtual screening” (Frontiers in Pharmacology, 2025):
Read-outs that look alike come from different tables or passages of the source.

How the values were obtained:
[1] = system: BEAS-2B normal lung cells; test: MTT assay; type: cell-based; conditions: Homo sapiens, 72 h
Method: (§1) Cells were seeded in 96-well plates at 5 ×10^4 cells/well and cultured overnight at 37°C under 5% CO2. After medium removal, cells were treated with serially diluted compounds (0.04–163.84 μM) or vehicle control (0.1% DMSO) and incubated for 72 h. Subsequently, 20 μL of MTT solution (5 mg/mL) was added to each well, and incubation was continued for 4 h. Add 150 μL of DMSO and shake for 10 min to fully dissolve the crystal. Finally, the absorbance was measured at 570 nm using a microplate reader. Cell viability was calculated as (ODcompound - ODblank)/(ODvehicle - ODblank) × 100%. The half inhibitory concentration (IC50) was calculated from the dose-response curve using Prism 8.0 software. Three independent replicate experiments were performed.

A549 lung cancer cells = test: MTT assay; type: cell-based; conditions: Homo sapiens, read-out: IC50 (μM) A549
Method: as §1

PRDX1 [2] = target: T1, PRDX1 (Homo sapiens, UniProt Q06830); test: PRDX1 inhibition assay; type: biochemical
T1 sequence (Q06830 1-199): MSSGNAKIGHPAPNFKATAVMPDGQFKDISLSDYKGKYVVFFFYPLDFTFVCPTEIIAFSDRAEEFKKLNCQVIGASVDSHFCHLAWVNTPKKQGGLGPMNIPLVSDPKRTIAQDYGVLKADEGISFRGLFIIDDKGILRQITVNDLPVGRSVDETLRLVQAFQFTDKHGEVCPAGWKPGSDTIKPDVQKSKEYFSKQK
Method: The cells were purchased from the American Type Culture Collection (ATCC) (Manassas, VA, United States). Cells were cultured in RPMI-1640 medium supplemented with 10% FBS, 50 units/mL penicillin, and 50 μg/mL streptomycin, and maintained at 37°C in a 5% CO2 humidified culture environment. CPs 1-5 were purchased from WuXi AppTec. Human PRDX1 proteins were purchased from Abcam (Cambridge, MA, United States).
First, […] buffer (20 mM HEPES, 5 mM EDTA, 5 μM cofactor A, 2 μM cofactor B, and 300 μM NADPH) was added to a 96-well plate. The test compounds at the designated concentration (0.02–2 nM, with 1.5-fold dilution) were incubated with PRDX1 at 37°C for 25 min, and then the co-incubated mixture was added to each well to a final concentration of 200 nM PRDX1. Finally, 200 μM H2O2 was added to each well to initiate the enzyme reaction cycle. The oxidation of NADPH was determined by the absorption value at 340 nm. Read plate values for 90 s for one cycle and repeat for 20 cycles. The positive control (celastrol, concentrations 0.06–64 μM) was tested in parallel under identical experimental conditions. Three independent replicate experiments were performed.

PRDX1 [3] = target: T1, PRDX1; test: MST assay; type: binding
Method: The MST assays were carried out in a buffer composed of 50 mM Tris, 200 mM NaCl, and 0.1% (v/v) TWEEN20. PRDX1 was tagged with the MO-L011 protein labeling kit (RED-NHS second Generation). The diluted compounds were combined with the tagged PRDX1 protein and allowed to stand at room temperature for 5 minutes. Subsequently, the reaction mixture was loaded into capillaries, and measurements were taken using a Monolith NT.115 instrument.

[4] = system: MCF-7 (breast adenocarcinoma cells); test: MTT assay; type: cell-based; conditions: Homo sapiens, MCF7, 72 h, read-out: IC50 (μM) MCF-7
Method: as §1

[5] = system: HepG2 (hepatocellular carcinoma cells); test: MTT assay; type: cell-based; conditions: Homo sapiens, HepG2, 72 h, read-out: IC50 (μM) HepG2
Method: as §1

[6] = system: HEK293 (embryonic kidney cells); test: MTT assay; type: cell-based; conditions: Homo sapiens, HEK293, 72 h, read-out: IC50 (μM) HEK293
Method: as §1

[7] = system: HaCaT (immortalised keratinocytes); test: MTT assay; type: cell-based; conditions: Homo sapiens, 72 h, normal cells, mean ± SD, n = 3
Method: as §1

LO2 (normal liver cells) = test: MTT assay; type: cell-based; conditions: Homo sapiens, 72 h, read-out: IC50 (μM) LO2
Method: as §1

[8] = MTT, normal lung cells, mean ± SD, n = 3, read-out: IC50 (μM) BEAS-2B
[9] = A549, MTT, 72 h, mean ± SD, n = 3
[10] = mean ± SD, n = 3, read-out: PRDX1 (IC50)

| Compound | IC50 [1, 8] [µM] | IC50 (A549 lung cancer cells; [9]) [µM] | IC50 (PRDX1 [2]; [10]) [nM] | Kd (PRDX1 [3]) [nM] | IC50 [4] [µM] | IC50 [5] [µM] | IC50 ([1]; read-out: IC50 (μM) BEAS-2B) [µM] | IC50 [6] [µM] | IC50 [7] [µM] | IC50 (LO2 (normal liver cells)) [µM] | IC50 (A549 lung cancer cells; A549, 72 h) [µM] | IC50 (PRDX1 [2]) [nM] |
| --- | --- | --- | --- | --- | --- | --- | --- | --- | --- | --- | --- | --- |
| CC1=C(CC(=O)/C=C/C2=CC(CO)=CC2)C(=O)C=C2C1=CC=C1[C@@]2(C)CC[C@@]2(C)C3C[C@](C)(C(=O)NCc4cccc(C(O)C(O)O)c4)CC[C@]3(C)CC[C@]12C (stereo partly drawn) [CP2] | > 100 | 0.46 ± 0.03 | 0.17 ± 0.02 | – | – | – | – | – | – | – | – | – |
| Cc1ncc(CNC(=O)[C@]2(C)CC[C@]3(C)CC[C@]4(C)C5=CC=C6C=C(CC(=O)/C=C/c7cccc(CO)c7)C(=O)C=C6C5CC[C@@]4(C)C3C2)nc1C(C)C(O)O (stereo partly drawn) [CP3] | > 100 | 0.57 ± 0.05 | 0.25 ± 0.01 | – | – | – | – | – | – | – | – | – |
| C[C@@]1(C(=O)NCc2cccc(CC(O)O)c2)CC[C@]2(C)CC[C@]3(C)C4=CC=C5C=C(CC(=O)/C=C/c6cccc(CO)c6)C(=O)C=C5C4CC[C@@]3(C)C2C1 (stereo partly drawn) [CP4] | > 100 | 0.63 ± 0.04 | 0.31 ± 0.03 | – | – | – | – | – | – | – | – | – |
| C=C(/C=C(C)\C=C\C(=O)CC1=CC2=CC=C3C(CC[C@@]4(C)C5C[C@](C)(C(=O)NCc6cccc(CC(O)O)c6)CC[C@]5(C)CC[C@]34C)C2=CC1=O)CO (stereo partly drawn) [CP5] | > 100 | 0.68 ± 0.06 | 0.36 ± 0.02 | – | – | – | – | – | – | – | – | – |
| CC1=C(O)C(=O)C=C2C1=CC=C1[C@@]2(C)CC[C@@]2(C)[C@@H]3C[C@](C)(C(=O)O)CC[C@]3(C)CC[C@]12C [Celastrol, celastrol] | – | – | – | 320 ± 20 | 1.31 ± 0.06 | 1.28 ± 0.05 | 0.45 ± 0.03 | 5.76 ± 0.12 | 17.4 ± 0.54 | 24 ± 0.69 | 1.24 ± 0.08 | 510 ± 40 |
